This is an account of results in the pKa sets of Baltruschat and Czodrowski (2020).

In general, pKa refers to the negative logarithm of the acid dissociation constant. As to `O=C1c2ccccc2C(=O)C1Cc1ccccc1`, for the setting “acidic group”, the pKa worked out at 5.9. The same measure, in the same setting: the same measure for `CC1(C)S[C@H]2[C@@H](NC(=O)Cc3ccccc3)C(=O)N2[C@@H]1C(=O)O`: 2.76. Take `CCN(CC)CCOCCN(CC)CC`: the pKa (basic group) worked out at 10.1. `N#CC(C#N)=NNc1ccc([N+](=O)[O-])cc1` showed a pKa (acidic group) of 5.5. As to `CN1C(=O)C(C)(C)NC1=S`, for the setting “acidic group”, the pKa was determined as 10.8. With `O=[Se](O)c1ccccc1`, the pKa was 4.79 (acidic group) and -0.9 (basic group). Take `COc1ccc(C(=S)Nc2ccc(Br)cc2)cc1`: the pKa (acidic group) was found to be 10.9.

Take `Cc1cnc2c(ccc3cc(C)cnc32)c1`: where the note is “basic group”, the pKa was determined as 5.23. The same measure, in the same setting: the same measure for `O=C([O-])c1ccc2ccccc2n1`: 4.97. `CN(C)CCSCC[NH+](C)C`: the pKa (basic group) amounted to 8.

As to `Oc1ccc2cccc(Br)c2c1`, the pKa (acidic group) was 8.94.

On to `c1ccc(N=C(Nc2ccccc2)Nc2ccccc2)cc1`, for which the pKa (basic group) came out at 9.1. `CN1CC(=O)NC1=O` came in with a pKa (acidic group) of 11.4. As for `O=[N+]([O-])c1cccc(Nc2ccccc2)c1`, the pKa (basic group) was -1.27. Compound `Nc1nnc(S(N)(=O)=O)s1` yielded a pKa (acidic group) of 7.69.

For the compound `CC(=O)n1ccnc1C`, where the note is “basic group”, the pKa came out at 5.03. Regarding `O=C(O)c1cc(-c2ccccc2)n[nH+]c1NCC[NH+]1CCOCC1`, the pKa (acidic group) came out at 1.1.

For the compound `O=C(CC(=O)c1ccccc1)Nc1ccccc1[N+](=O)[O-]`, the pKa (acidic group) came to 9.54. Take `Cc1cccc(/C=C/C(=O)O)c1`: for the setting “acidic group”, the pKa came to 4.44. `O=C1CS(=O)(=O)NC(=O)N1` registered a pKa (acidic group) of 2.7. On the same count and under the same terms, the same measure for `O=C1NC(C(=O)O)CC1O` (stereo unspecified): 3.8.

`CC1(C)CCC(C2CCC(C)(C)N2)N1` (stereo unspecified): the pKa (basic group) turned out to be 10.3. On the same count and under the same terms, the same measure for `c1ccc(-c2ccc3nc(C[NH+]4CCOCC4)cn3n2)cc1`: 1.4; for `CCCCCC(C)NC` (stereo unspecified): 11.

The compound `CC(C)(OO)c1ccccc1` registered a pKa (acidic group) of 12.6. Where the note is “acidic group”, `O=C(O)CSc1cccc([N+](=O)[O-])c1` returned a pKa of 3.4.

For the setting “acidic group”, `Cc1cc(C(=O)O)ccc1Cl` gave a pKa of 4.07. For the compound `CC(=O)Nc1cccc2nc3ccccc3cc12`, the pKa (basic group) was 4.4. With `Oc1cc(O)c2ccccc2[nH+]1`, the pKa (acidic group) was 0.76. Turning to `Nc1ncnc2c1ncn2C1CCCCC1`, the pKa (basic group) was found to be 4.19. On the same count and under the same terms, the same measure for `Nc1nc([O-])c2ncn([C@H]3O[C@@H](CO)[C@H](O)[C@@H]3O)c2n1`: 9.41; for `COc1ccc(F)cc1C(=O)N[C@@H]1C[C@H]2CC[C@@H](C1)N2Cc1ccccc1`: 8.82; for `CNC(=O)/C=C(\c1ccc2nc(N)n(C(C)C)c2c1)c1cccc(F)c1F`: 6.69.

`[NH-]S(=O)(=O)c1nnc(Nc2ccccc2)s1`: the pKa (acidic group) amounted to 11.1. For the compound `O=C(CCCCN1CCOCC1)c1ccccc1`, under “basic group”, the pKa stood at 7.5. `COc1nc(N)c2[nH]cnc2n1` showed a pKa (acidic group) of 10 and a pKa (basic group) of 3.7.

For the setting “basic group”, `O=Cc1cc(-c2ccccc2)nnc1NCC[NH+]1CCOCC1` returned a pKa of 2.6. For the compound `Nc1ccc(S(=O)(=O)Nc2ccn(-c3ccc([N+](=O)[O-])cc3)n2)cc1`, the pKa (acidic group) was determined as 6.94. On to `Cc1cc(C)cc(C(=O)O)c1`, for which the pKa (acidic group) stood at 4.3. With `[NH3+][C@@H](Cc1[nH+]c[nH]c1I)C(=O)O`, where the note is “acidic group”, the pKa is 1.65. `Nc1ccc2cccc([N+](=O)[O-])c2c1` registered a pKa (basic group) of 2.86.

Consider `CN(C)c1cc[n+](C)c([O-])n1`, for which the pKa (basic group) was 4.2. In the case of `COc1cc(C[NH3+])c(C)cc1N`, the pKa (basic group) was 4.26. On the same count and under the same terms, the same measure for `OCCCCc1cccnc1`: 5.7. Where the note is “acidic group”, `C=C(F)C(=O)O` yielded a pKa of 2.55. `CC1=CN(C)CC1C` (stereo unspecified): the pKa (basic group) worked out at 9.6. For `[O-]c1ncc2[nH]cnc2n1`, the pKa was 11.9 (acidic group) and 8.43 (basic group). On to `[NH3+][C@@H](Cc1c[nH]c2ccccc12)C(=O)O`, for which the pKa (acidic group) is 2.2. On the same count and under the same terms, the same measure for `NC(=O)/C(=N/O)c1ccccc1`: 9.55. Where the note is “basic group”, `Cc1ccccc1C(=NCC[NH+](C)C)c1ccccc1C` returned a pKa of 2.82. As for `CNc1ccc(O)cc1`, the pKa (basic group) was 6.

`O=[PH](O)C([NH2+]Cc1cc[nH+]cc1)c1ccccc1O` (stereo unspecified) returned a pKa (acidic group) of 2.35.

As for `CCCCc1ccc(C(=O)[O-])nc1`, the pKa (basic group) turned out to be 5.7. Compound `C[Se]CCN` returned a pKa (basic group) of 9.53. Same read-out and setting: the same measure for `c1ccc2cc(NCC[NH2+]c3ccc4ccccc4c3)ccc2c1`: 1.8.

`O=C(O)c1ccc(Cl)s1` registered a pKa (acidic group) of 3.41. With `O=C1CCc2ccccc2C1`, the pKa (basic group) was determined as 12.8. Compound `C1CNCCSCCN1` showed a pKa (basic group) of 10. `Cc1cccc([P+](c2cccc(C)c2)(c2cccc(C)c2)C2c3ccccc3-c3ccccc32)c1` registered a pKa (acidic group) of 9.55. On the same count and under the same terms, the same measure for `CC(=O)c1cccc(NC(N)=S)c1`: 12.1. For the setting “basic group”, `C1CCN(CC[NH+]2CCCCC2)CC1` yielded a pKa of 6.12. On the same count and under the same terms, the same measure for `CN1CCCC2CCN=C21` (stereo unspecified): 11.5. In the case of `C[n+]1ccc2ccc(O)cc2c1`, under “acidic group”, the pKa was 7.09.

Consider `CCNCC(=O)[O-]`, for which the pKa (basic group) amounted to 10.2. `O=C(O)c1cccc(S)c1` gave a pKa (acidic group) of 3.96. Regarding `Nc1cnc2cc3ccccc3cc2c1`, the pKa (basic group) stood at 4.78.

Where the note is “basic group”, `CCN(CC)CCO` yielded a pKa of 9.84. For the compound `CCNN(CC)CC`, the pKa (basic group) came out at 7.08. In turn, `O=[PH]([O-])C([NH2+]Cc1ccccn1)c1ccccc1O` (stereo unspecified) returned a pKa (basic group) of 3.25. For the compound `CC(C)(/C=C/C(=O)O)c1cc(Br)ccc1O`, the pKa (acidic group) worked out at 4.46. In the case of `CC1=CC(=O)CC(=O)O1`, the pKa (acidic group) came out at 5.

Compound `OCCc1ccccn1` came in with a pKa (basic group) of 5.37. For the compound `Sc1cnc2ccccc2c1`, the pKa is, setting by setting: (acidic group) 6.13; (basic group) 2.33. Turning to `O=C(C[n+]1cccc2c3ccccc3ccc21)c1ccc([N+](=O)[O-])cc1`, the pKa (acidic group) was 9.45. Where the note is “basic group”, `C[Si](C)(C)OC1CN(Cc2ccccc2)C1` displayed a pKa of 8.08.

Compound `C[C@H]1CC[C@@H](C(=O)O)CC1` gave a pKa (acidic group) of 5.04. The compound `CC(O)CNCCN` (stereo unspecified) registered a pKa (basic group) of 9.86. On the same count and under the same terms, the same measure for `Nc1ccccc1F`: 2.96; for `CCCc1c(O)n[nH]c1C`: 2.8.

Turning to `CNc1nc(C)nc2[nH]ncc12`, the pKa by setting is: (acidic group) 11.3; (basic group) 5.56. `CS[C@H]1CCC[C@@H]1N(C)C` yielded a pKa (basic group) of 8.85. As for `CCCCNC(O)=S`, for the setting “acidic group”, the pKa worked out at 0.67.

In turn, `C=CC(Cl)C(=O)O` (stereo unspecified) gave a pKa (acidic group) of 2.54. Where the note is “basic group”, `Cc1cc(N)cc(C)c1C` gave a pKa of 5.15. Consider `CCOc1ccccc1N`, for which, for the setting “basic group”, the pKa is 4.51. As for `O=C(O)c1cc[nH]n1`, the pKa (acidic group) came to 3.84. Under “acidic group”, `CC(=O)c1cc[nH]n1` showed a pKa of 11.8. As to `CCCCNCCN`, the pKa (basic group) is 10.3. In turn, `Oc1cccc2cc3ccccc3cc12` displayed a pKa (acidic group) of 9.88. Where the note is “acidic group”, `S=C(Nc1ccccc1)c1ccc(Cl)cc1` had a pKa of 10.8. Where the note is “basic group”, `Cc1ccccc1C(=NCCCCN(C)C)c1ccccc1C` had a pKa of 8.8. The compound `COC(=O)CCS` came in with a pKa (acidic group) of 9.33. The same measure, in the same setting: the same measure for `[NH3+]C(CC(=O)[O-])C(=O)NC(CC(=O)O)C(=O)O` (stereo unspecified): 3.4; for `O=C1CCCC2CCCC(=O)C12` (stereo unspecified): 11.1.

`O=CC1CCCC1=O` (stereo unspecified) displayed a pKa (acidic group) of 5.83.

`CCCCNCc1ccc(C)cc1`: the pKa (basic group) worked out at 9.98. For the setting “acidic group”, `NC1=[NH+][C@@H](CC(=O)O)C(=O)N1CCCC([NH3+])C(=O)[O-]` (stereo partly specified) gave a pKa of 3.26.

For the compound `O=C1NS(=O)(=O)c2ccccc21`, the pKa (acidic group) stood at 1.76. Regarding `Cc1cc(C(=O)O)c[nH]1`, the pKa (acidic group) is 5.35.

For `CCOCCn1c(N2CCCN(CCCCn3cc(C(=O)[O-])cn3)CC2)nc2ccccc21`, where the note is “basic group”, the pKa came out at 8.5. For `CN1c2ccccc2Nc2ccc(O)cc21`, the pKa reads like this: (acidic group) 10.1; (basic group) 1. Where the note is “basic group”, `O=C(Nc1ccncc1)c1ccccc1` displayed a pKa of 5.32. In turn, `c1c(CN2CCNCC[NH2+]CC2)n[nH]c1CN1CCNCCNCC1` displayed a pKa (basic group) of 10.5. Same read-out and setting: the same measure for `CCCCCCCCCCCCCCCCCCNCCCCCCCCCCCCCCCCCC`: 11; for `C[NH+](C)CCCNc1ccnc2c([N+](=O)[O-])cccc12`: 6.91. Regarding `Cn1c[nH+]c(C(=O)O)c1C(=O)O`, where the note is “acidic group”, the pKa is -0.88. The same measure, in the same setting: the same measure for `CC(=O)NCc1cc(C)cc(CNC(C)=O)c1O`: 9. For the compound `Cc1cc(C(c2ccc(N)cc2)c2ccc([NH3+])cc2)ccc1[NH3+]`, the pKa (basic group) turned out to be 2.6.

`CCN(CC)CC1CO1` (stereo unspecified): the pKa (basic group) came out at 8.55. With `NC(=O)CS`, the pKa (acidic group) worked out at 8.22. As to `C=CC(CC(C)(C)CC(C)(C)C)c1ccc2cccnc2c1O` (stereo unspecified), the pKa reads like this: (acidic group) 10; (basic group) 4.51. `c1ccc(CNC23OC4C5C6CC(C7C6C4C72)C53)cc1` (stereo unspecified) had a pKa (basic group) of 7.07.

`CSc1ccccn1` yielded a pKa (basic group) of 3.62.

Compound `O=C(O)CCCC1CCCCC1` displayed a pKa (acidic group) of 4.95. Consider `CCOC(=O)C(Cc1ccccc1)C(C)=O` (stereo unspecified), for which, where the note is “acidic group”, the pKa amounted to 11.8. `C[NH+](C)CCCCNc1ccnc2cccc([N+](=O)[O-])c12`: the pKa (basic group) was determined as 6.71. For the compound `CCc1cc(C)nnc1C`, the pKa (basic group) was determined as 4.73.

Take `[O-]\N=C1/CCCC(=N\O)/C1=N/[O-]`: the pKa (acidic group) was 12.2. On to `Nc1ccc(C[NH3+])cc1`, for which the pKa (basic group) is 4.16. With `OCCN1CC[NH+](CCCN2c3ccccc3Sc3ccc(Cl)cc32)CC1`, the pKa (basic group) is 3.59. Same read-out and setting: the same measure for `CN(C)c1ccc[nH+]c1`: -1.91. In the case of `C/C=C/CCC(=O)O`, the pKa (acidic group) came to 4.72. Where the note is “basic group”, `COc1cnccn1` returned a pKa of 0.75. Under “basic group”, `Cn1cnc2ncncc21` had a pKa of 2.29. `Cc1cccc(C(=O)O)c1[N+](=O)[O-]` came in with a pKa (acidic group) of 2.91.

Where the note is “acidic group”, `COc1cccc(C)c1C(=O)O` registered a pKa of 3.46. On to `O=[N+]([O-])c1ccc2[nH]c(-c3ccco3)nc2c1`, for which the pKa (basic group) amounted to 2.64. Turning to `CC(C#N)CC(=O)O` (stereo unspecified), the pKa (acidic group) is 3.95. As to `CN(C)CCCC(=O)Oc1cccc([N+](=O)[O-])c1`, under “basic group”, the pKa was 9.82. In turn, `Nc1c2[nH]cnc2nc[n+]1[O-]` displayed a pKa (acidic group) of 9 and a pKa (basic group) of 2.6. `Cc1c([N+](=O)[O-])ccc2c(NCCC[NH+](C)C)ccnc12` showed a pKa (basic group) of 6.71. Still for that read-out and setting: the same measure for `C1CCc2c(nnc3c2CCCC3)C1`: 6.12. Compound `Cn1cnc2c1C(=O)c1ncnc([O-])c1C2=O` came in with a pKa (basic group) of 6.09. This pKa and that of the compound before are within 0.2 log units of each other.
